Laboratory results taken from US9149536B2, “Conjugated antimicrobial agents” (priority 2009, dated 2015).
≈ marks a conversion by molar mass, not a printed value.

How the values were obtained:
E. coli AG100B = assay: MIC, double-microdilution, E. coli AG100B; format: cell-based, Escherichia coli
Source text: AG100B and AG100A are two kanamycin resistant Escherichia coli strains expressing APH(3′)-I aminoglycoside resistance enzyme.

E. coli ATCC 25922 = assay: MIC, double-microdilution, E. coli ATCC 25922; format: cell-based, Escherichia coli; conditions: for MIC E. coli 25922: Table 6; for MIC E. coli ATCC 25922: Table 4
B. subtilis ATCC 6633 = assay: MIC, double-microdilution, B. subtilis ATCC 6633; format: cell-based; conditions: for MIC Bacillus subtilis: Table 6; for MIC B. subtilis ATCC 6633: Table 4
E. coli XL1 blue = assay: microbe, parasite or virus in culture; format: cell-based; conditions: Table 6
Method: (§1) For this purpose, exemplary conjugates, according to some embodiments of the present invention, were tested against five isogenic E. coli strains. E. coli (pSF815) and E. coli (pET9d) are laboratory resistant strains derived by transformation of E. coli XL1 blue (background strain) with the pSF815 and pET9d plasmids, respectively. […] The last two isogenic strains used were E. coli BL21 (background strain) and E. coli (pETSACG1). […] These three enzymes are among the most prevalent modes of resistance found in aminoglycosides resistance strains.
(§2) The MIC ratios were calculated by dividing the MIC value against resistant strain to that against the respective background strain.

E. coli XL1 blue/pET9d = assay: microbe, parasite or virus in culture; format: cell-based; conditions: Table 6
Method: as §1, §2

E. coli AG100A = assay: MIC, double-microdilution, E. coli AG100A; format: cell-based, Escherichia coli
E. coli R477-100 = assay: MIC, double-microdilution, E. coli R477-100; format: cell-based, Escherichia coli
MRSA ATCC 43300 = assay: microbe, parasite or virus in culture; format: cell-based, S. aureus; conditions: Table 4
[1] = Table 4, kanamycin resistant, APH(3′)-I

Row | Compound | MIC E. coli AG100B (E. coli AG100B; [1]) | MIC MRSA ATCC 43300 (MRSA ATCC 43300) | MIC E. coli ATCC 25922 (E. coli ATCC 25922) | MIC B. subtilis ATCC 6633 (B. subtilis ATCC 6633) | MIC E. coli AG100A (E. coli AG100A; [1]) | MIC E. coli R477-100 (E. coli R477-100; Table 4) | other results
1 | NCC1OC(OC2C(N)CC(NCc3cn(CC(O)CN4CCN(c5cc6c(cc5F)c(=O)c(C(=O)O)cn6C5CC5)CC4)nn3)C(OC3OC(CO)C(O)C(N)C3O)C2O)C(O)C(O)C1O (stereo not shown) [Compound 11f, 1-(4-(1-N-kanamycinmethyl)-1H-1,2,3-triazol-1-yl)-3-(ciprofloxacin)propan-2-ol] | – | – | – | – | – | – | MIC E. coli AG100B (E. coli AG100B; Table 6): 6 µg/mL (≈ 6.3 µM); MIC E. coli 25922 (E. coli ATCC 25922): 1.5 µg/mL (≈ 1.57 µM); MIC Bacillus subtilis (B. subtilis ATCC 6633): 1.5 µg/mL (≈ 1.57 µM); MIC E. coli XL1 blue (E. coli XL1 blue): 3 µg/mL (≈ 3.15 µM); MIC E. coli XL1 blue/pET9d-aph(3′)-Ia (E. coli XL1 blue/pET9d): 3 μg/ml; MIC E. coli AG100A (E. coli AG100A; Table 6): 0.75 µg/mL (≈ 0.787 µM); MIC E. coli R477-100 (E. coli R477-100; Table 6): 3 µg/mL (≈ 3.15 µM)
2 | NCC1OC(OC2C(C(=O)NCc3cn(CCOCCN4CCN(c5cc6c(cc5F)c(=O)c(C(=O)O)cn6C5CC5)CC4)nn3)OC(OC3C(O)C(N)CC(N)C3OC3OC(CN)C(O)C(O)C3N)C2O)C(N)C(O)C1O (stereo not shown) [Compound 1n, N-((1-(2-(2-(ciprofloxacin)ethoxy)ethyl)-1H-1,2,3-triazol-4-yl)-5″-methyl)neomycin carboxamide] | 12 µg/mL (≈ 10.8 µM) | 24 µg/mL (≈ 21.6 µM) | 6 µg/mL (≈ 5.4 µM) | 12 µg/mL (≈ 10.8 µM) | 1.5 µg/mL (≈ 1.35 µM) | 12 µg/mL (≈ 10.8 µM) | –
3 | NCC1OC(OC2C(C(=O)NCc3cn(CCN4CCN(c5cc6c(cc5F)c(=O)c(C(=O)O)cn6C5CC5)CC4)nn3)OC(OC3C(O)C(N)CC(N)C3OC3OC(CN)C(O)C(O)C3N)C2O)C(N)C(O)C1O (stereo not shown) [Compound 1j, N-((1-(4-(ciprofloxacin)ethyl)-1H-1,2,3-triazol-4-yl)-5″-methyl)neomycin carboxamide] | 12 µg/mL (≈ 11.3 µM) | 24 µg/mL (≈ 22.5 µM) | 6 µg/mL (≈ 5.63 µM) | 3 µg/mL (≈ 2.81 µM) | 1.5 µg/mL (≈ 1.41 µM) | 12 µg/mL (≈ 11.3 µM) | –
4 | NCC1OC(OC2C(C(=O)Nc3ccc(-c4cn(CCCCCCN5CCN(c6cc7c(cc6F)c(=O)c(C(=O)O)cn7C6CC6)CC5)nn4)cc3)OC(OC3C(O)C(N)CC(N)C3OC3OC(CN)C(O)C(O)C3N)C2O)C(N)C(O)C1O (stereo not shown) [Compound 1e, N-(4-(1-(2-(ciprofloxacin)hexyl)-1H-1,2,3-triazol-4-yl)-5″-phenyl)neomycin carboxamide] | 12 µg/mL (≈ 10.1 µM) | 48 µg/mL (≈ 40.5 µM) | 6 µg/mL (≈ 5.07 µM) | 12 µg/mL (≈ 10.1 µM) | 1.5 µg/mL (≈ 1.27 µM) | 6 µg/mL (≈ 5.07 µM) | –
5 | NCC1OC(OC2C(N)CC(NCc3cn(Cc4ccc(CN5CCN(c6cc7c(cc6F)c(=O)c(C(=O)O)cn7C6CC6)CC5)cc4)nn3)C(OC3OC(CO)C(O)C(N)C3O)C2O)C(O)C(O)C1O (stereo not shown) [Compound 11i, 4-(1-N-kanamycinmethyl)-1-(4-((ciprofloxacin)methyl)benzyl)-1H-1,2,3-triazole] | – | – | – | – | – | – | MIC E. coli AG100B (E. coli AG100B; Table 6): 12 µg/mL (≈ 12 µM); MIC E. coli 25922 (E. coli ATCC 25922): 6 µg/mL (≈ 6.01 µM); MIC Bacillus subtilis (B. subtilis ATCC 6633): 3 µg/mL (≈ 3 µM); MIC E. coli XL1 blue (E. coli XL1 blue): 3 µg/mL (≈ 3 µM); MIC E. coli XL1 blue/pET9d-aph(3′)-Ia (E. coli XL1 blue/pET9d): 3 μg/ml; MIC E. coli AG100A (E. coli AG100A; Table 6): 0.75 µg/mL (≈ 0.751 µM); MIC E. coli R477-100 (E. coli R477-100; Table 6): 6 µg/mL (≈ 6.01 µM)
6 | NC[C@H]1O[C@H](O[C@H]2[C@H](O)[C@@H](O[C@H]3O[C@H](CO)[C@@H](O)[C@H](N)[C@H]3O)[C@H](N)C[C@@H]2N)[C@H](O)[C@@H](O)[C@@H]1O [KanA, kanamycin A, reference compound] | – | – | – | – | – | – | MIC E. coli AG100B (E. coli AG100B; Table 6): >384 µg/mL; MIC E. coli 25922 (E. coli ATCC 25922): 12 µg/mL (≈ 24.8 µM); MIC Bacillus subtilis (B. subtilis ATCC 6633): 1.5 µg/mL (≈ 3.1 µM); MIC E. coli XL1 blue (E. coli XL1 blue): 3 µg/mL (≈ 6.19 µM); MIC E. coli XL1 blue/pET9d-aph(3′)-Ia (E. coli XL1 blue/pET9d): >384 μg/ml; MIC E. coli AG100A (E. coli AG100A; Table 6): 384 µg/mL (≈ 793 µM); MIC E. coli R477-100 (E. coli R477-100; Table 6): 24 µg/mL (≈ 49.5 µM)
7 | NCC1OC(OC2C(C(=O)NCc3cn(CCCN4CCN(c5cc6c(cc5F)c(=O)c(C(=O)O)cn6C5CC5)CC4)nn3)OC(OC3C(O)C(N)CC(N)C3OC3OC(CN)C(O)C(O)C3N)C2O)C(N)C(O)C1O (stereo not shown) [Compound 1k, N-((1-(4-(ciprofloxacin)propyl)-1H-1,2,3-triazol-4-yl)-5″-methyl)neomycin carboxamide] | 12 µg/mL (≈ 11.1 µM) | 48 µg/mL (≈ 44.4 µM) | 6 µg/mL (≈ 5.55 µM) | 6 µg/mL (≈ 5.55 µM) | 1.5 µg/mL (≈ 1.39 µM) | 12 µg/mL (≈ 11.1 µM) | –
8 | NCC1OC(OC2C(C(=O)Nc3ccc(-c4cn(CCCCCN5CCN(c6cc7c(cc6F)c(=O)c(C(=O)O)cn7C6CC6)CC5)nn4)cc3)OC(OC3C(O)C(N)CC(N)C3OC3OC(CN)C(O)C(O)C3N)C2O)C(N)C(O)C1O (stereo not shown) [Compound 1d, N-(4-(1-(2-(ciprofloxacin)pentyl)-1H-1,2,3-triazol-4-yl)-5″-phenyl)neomycin carboxamide] | 24 µg/mL (≈ 20.5 µM) | 48 µg/mL (≈ 41 µM) | 6 µg/mL (≈ 5.13 µM) | 12 µg/mL (≈ 10.3 µM) | 1.5 µg/mL (≈ 1.28 µM) | 12 µg/mL (≈ 10.3 µM) | –
9 | NCC1O[C@@H](O[C@H]2C(N)C[C@H](NCc3cn(CCN4CCN(c5cc6c(cc5F)c(=O)c(C(=O)O)cn6C5CC5)CC4)nn3)C(OC3O[C@@H](CO)C(O)C(N)[C@@H]3O)C2O)C(O)C(O)[C@H]1O (stereo partly shown) [Compound 11a, 4-(1-N-kanamycinmethyl)-1-(2-(ciprofloxacin)ethyl)-1H-1,2,3-triazole] | – | – | – | – | – | – | MIC (E. coli AG100B; Escherichia coli, AG100B, read-out: MIC E. coli AG100B, Table 6): 12 µg/mL (≈ 13 µM); MIC (E. coli ATCC 25922; Escherichia coli, ATCC25922, read-out: MIC E. coli 25922): 3 µg/mL (≈ 3.25 µM); MIC (B. subtilis ATCC 6633; Bacillus subtilis, ATCC6633, read-out: MIC Bacillus subtilis): 1.5 µg/mL (≈ 1.63 µM); MIC (E. coli XL1 blue; Escherichia coli, XL1BLUE, read-out: MIC E. coli XL1 blue): 6 µg/mL (≈ 6.5 µM); MIC (E. coli XL1 blue/pET9d; Escherichia coli, XL1BLUE/PET9D, read-out: MIC E. coli XL1 blue/pET9d-aph(3′)-Ia): 6 µg/mL (≈ 6.5 µM); MIC (E. coli AG100A; Escherichia coli, AG100A, read-out: MIC E. coli AG100A, Table 6): 0.75 µg/mL (≈ 0.813 µM); MIC (E. coli R477-100; Escherichia coli, R477100, read-out: MIC E. Coli R477-100): 6 µg/mL (≈ 6.5 µM)
10 | NCC1OC(OC2C(C(=O)Nc3ccc(-c4cn(CCCCN5CCN(c6cc7c(cc6F)c(=O)c(C(=O)O)cn7C6CC6)CC5)nn4)cc3)OC(OC3C(O)C(N)CC(N)C3OC3OC(CN)C(O)C(O)C3N)C2O)C(N)C(O)C1O (stereo not shown) [Compound 1c, N-(4-(1-(2-(ciprofloxacin)butyl)-1H-1,2,3-triazol-4-yl)-5″-phenyl)neomycin carboxamide] | 24 µg/mL (≈ 20.8 µM) | 24 µg/mL (≈ 20.8 µM) | 6 µg/mL (≈ 5.19 µM) | 6 µg/mL (≈ 5.19 µM) | 1.5 µg/mL (≈ 1.3 µM) | 12 µg/mL (≈ 10.4 µM) | –
11 | NCC1OC(OC2C(C(=O)Nc3ccc(-c4cn(CCOCCN5CCN(c6cc7c(cc6F)c(=O)c(C(=O)O)cn7C6CC6)CC5)nn4)cc3)OC(OC3C(O)C(N)CC(N)C3OC3OC(CN)C(O)C(O)C3N)C2O)C(N)C(O)C1O (stereo not shown) [Compound 1g, N-(4-(1-(2-(2-(ciprofloxacin)ethoxy)ethyl)-1H-1,2,3-triazol-4-yl)-5″-phenyl)neomycin carboxamide] | 12 µg/mL (≈ 10.2 µM) | 24 µg/mL (≈ 20.5 µM) | 12 µg/mL (≈ 10.2 µM) | 12 µg/mL (≈ 10.2 µM) | 1.5 µg/mL (≈ 1.28 µM) | 24 µg/mL (≈ 20.5 µM) | –
12 | NCC1OC(OC2C(C(=O)NCc3cn(CCCCCN4CCN(c5cc6c(cc5F)c(=O)c(C(=O)O)cn6C5CC5)CC4)nn3)OC(OC3C(O)C(N)CC(N)C3OC3OC(CN)C(O)C(O)C3N)C2O)C(N)C(O)C1O (stereo not shown) [Compound 1l, N-((1-(4-(ciprofloxacin)pentyl)-1H-1,2,3-triazol-4-yl)-5″-methyl)neomycin carboxamide] | 24 µg/mL (≈ 21.7 µM) | 48 µg/mL (≈ 43.3 µM) | 6 µg/mL (≈ 5.41 µM) | 12 µg/mL (≈ 10.8 µM) | 1.5 µg/mL (≈ 1.35 µM) | 24 µg/mL (≈ 21.7 µM) | –
13 | NCC1OC(OC2C(C(=O)Nc3ccc(-c4cn(CCCN5CCN(c6cc7c(cc6F)c(=O)c(C(=O)O)cn7C6CC6)CC5)nn4)cc3)OC(OC3C(O)C(N)CC(N)C3OC3OC(CN)C(O)C(O)C3N)C2O)C(N)C(O)C1O (stereo not shown) [Compound 1b, N-(4-(1-(2-(ciprofloxacin)propyl)-1H-1,2,3-triazol-4-yl)-5″-phenyl)neomycin carboxamide] | 12 µg/mL (≈ 10.5 µM) | 48 µg/mL (≈ 42 µM) | 3 µg/mL (≈ 2.63 µM) | 6 µg/mL (≈ 5.25 µM) | 1.5 µg/mL (≈ 1.31 µM) | 6 µg/mL (≈ 5.25 µM) | –
14 | NCC1OC(OC2C(C(=O)Nc3ccc(-c4cn(CCN5CCN(c6cc7c(cc6F)c(=O)c(C(=O)O)cn7C6CC6)CC5)nn4)cc3)OC(OC3C(O)C(N)CC(N)C3OC3OC(CN)C(O)C(O)C3N)C2O)C(N)C(O)C1O (stereo not shown) [Compound 1a, N-(4-(1-(2-(ciprofloxacin)ethyl)-1H-1,2,3-triazol-4-yl)-5″-phenyl)neomycin] | 24 µg/mL (≈ 21.3 µM) | 48 µg/mL (≈ 42.5 µM) | 6 µg/mL (≈ 5.32 µM) | 6 µg/mL (≈ 5.32 µM) | 0.75 µg/mL (≈ 0.665 µM) | 12 µg/mL (≈ 10.6 µM) | –
15 | N-(4-(1-(4-((ciprofloxacin)methyl)benzyl)-1H-1,2,3-triazol-4-yl)-5″-phenyl)neomycin carboxamide [Compound 1h] | 12 µg/mL | 12 µg/mL | 12 µg/mL | 6 µg/mL | 1.5 µg/mL | 6 µg/mL | –
